These results are taken from US20080227803A1, “Indolomorphinan Derivative Having Carboxy in 6'-Position” (SHIOONOGI & CO., LTD., a legal entity of Japan, priority 2004, published 2008).

Assay [1] has as its system retching and emesis induced by morphine. The assay can be described thus: Effect on the retching and emesis induced by morphine in ferrets. It is filed as in vivo. The following applies: for Duration / Occurrence times / Latent period: mean ± SE; for Latent period: no symptom = 30 min; for Number of individuals with the symptom/Number of cases: morphine 0.6 mg/kg s.c., 30 min observation. The method, then: About 30 minutes after feeding, ferrets were placed into observation cages and administered with the test compound. The test compound was dissolved into 15% Solutol (Registered trademark) HS15 containing 5% of N,N-dimethylacetamide and 5% of N-methyl-glucamine, and administered at 5 mg/kg. Thirty minutes after administration of the test compound solution, morphine at 0.6 mg/kg was subcutaneously administered in a solution volume of 1 mL/kg, and the retching and emesis symptoms were visually observed for 30 minutes after administration of morphine.
The frequency, latency (the period from the administration of morphine to the initial occurrence of emetic symptom) and duration (the period from the initial emesis to the final emesis) of retching (rhythmical contraction of abdomen), emesis (emetic behavior to discharge the vomit or similar behavior) and both the symptoms were tabulated.
Meanwhile, the latency of a case showing no emesis was assumed to be 30 minutes that were the longest time of observation, and a duration of less than 1 minute after the occurrence of emesis was expressed as 1 minute for the sake of convenience.

The target in assay [2] is T1, opioid δ receptor (Rattus norvegicus, UniProt P33533).
T1 construct: Four hundred and eighty microliters of the rat cerebrum membrane fraction; from tissue; host or cells: rat (Slc:SD) cerebrum, crude membrane fraction
T1 sequence (P33533 whole entry): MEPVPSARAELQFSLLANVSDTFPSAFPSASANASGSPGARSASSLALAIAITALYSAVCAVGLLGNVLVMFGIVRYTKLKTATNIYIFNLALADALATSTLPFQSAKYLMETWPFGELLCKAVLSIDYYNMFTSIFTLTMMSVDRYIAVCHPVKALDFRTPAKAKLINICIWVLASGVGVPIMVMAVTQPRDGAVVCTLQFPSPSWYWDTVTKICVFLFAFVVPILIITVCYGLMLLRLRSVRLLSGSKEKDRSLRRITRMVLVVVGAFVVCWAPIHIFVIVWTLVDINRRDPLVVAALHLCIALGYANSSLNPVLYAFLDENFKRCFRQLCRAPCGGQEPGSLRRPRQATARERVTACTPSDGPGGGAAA
In words: Opioid receptor binding assay, [3H]-DADLE, rat cerebrum membrane fraction.

Where [3] appears, read: Retching + emesis, I-1 0.05 mg/kg.
Setting [4] is: Retching + emesis, I-1 0.5 mg/kg.

For `O=C(O)c1ccc2c3c([nH]c2c1)[C@@H]1Oc2c(O)ccc4c2[C@@]12CCN(CC1CC1)[C@H](C4)[C@]2(O)C3` [Compound I-1, 17-cyclopropylmethyl-6,7-didehydro-4,5α-epoxy-3,14β-dihydroxy-6′-carboxy-6,7-2′,3′-indolomorphinan], the Duration in assay [1] (Emesis, I-1 0.05 mg/kg) worked out at 0 ± 0 min; in assay [1] (Emesis, I-1 0.5 mg/kg), 0 ± 0 min; in assay [1] (Emesis, I-1 5 mg/kg) it was 0 ± 0 min; in assay [1] (setting [3]) it was 0 ± 0 min; in assay [1] (setting [4]), 0 ± 0 min; in assay [1] (Retching + emesis, I-1 5 mg/kg), 0 ± 0 min. For the same compound, the Duration in assay [1] (Retching, I-1 0.05 mg/kg) is given as 0 ± 0 min; in assay [1] (Retching, I-1 0.5 mg/kg), 0 ± 0 min; in assay [1] (Retching, I-1 5 mg/kg), 0 ± 0 min. Moreover, the Occurrence times in assay [1] (Emesis, I-1 0.05 mg/kg) amounted to 0 ± 0; in assay [1] (Emesis, I-1 0.5 mg/kg), 0 ± 0; in assay [1] (Emesis, I-1 5 mg/kg), 0 ± 0; in assay [1] (setting [3]), 0 ± 0; in assay [1] (setting [4]), 0 ± 0; in assay [1] (Retching + emesis, I-1 5 mg/kg) it was 0 ± 0. Moreover, the Occurrence times in assay [1] (Retching, I-1 0.05 mg/kg) came out at 0 ± 0; in assay [1] (Retching, I-1 0.5 mg/kg) it was 0 ± 0; in assay [1] (Retching, I-1 5 mg/kg) it was 0 ± 0. Further, the Latent period in assay [1] (Emesis, I-1 0.05 mg/kg) is 30 ± 0 min; in assay [1] (Emesis, I-1 0.5 mg/kg), 30 ± 0 min; in assay [1] (Emesis, I-1 5 mg/kg) it was 30 ± 0 min; in assay [1] (setting [3]), 30 ± 0 min; in assay [1] (setting [4]), 30 ± 0 min; in assay [1] (Retching + emesis, I-1 5 mg/kg), 30 ± 0 min. Further, the Latent period in assay [1] (Retching, I-1 0.05 mg/kg) was 30 ± 0 min; in assay [1] (Retching, I-1 0.5 mg/kg), 30 ± 0 min; in assay [1] (Retching, I-1 5 mg/kg) it was 30 ± 0 min. The “Number of individuals with the symptom/Number of cases” value in assay [1] (Emesis, I-1 0.05 mg/kg) is recorded as 0/6; in assay [1] (Emesis, I-1 0.5 mg/kg), 0/6; in assay [1] (Emesis, I-1 5 mg/kg), 0/6; in assay [1] (setting [3]), 0/6; in assay [1] (setting [4]) it was 0/6; in assay [1] (Retching + emesis, I-1 5 mg/kg), 0/6. The “Number of individuals with the symptom/Number of cases” value in assay [1] (Retching, I-1 0.05 mg/kg) is 0/6; in assay [1] (Retching, I-1 0.5 mg/kg) it was 0/6; in assay [1] (Retching, I-1 5 mg/kg), 0/6. In addition, in assay [2], the Ki was 0.62 nM.
In the case of `CC(C)(C)C(=O)OCOC(=O)c1ccc2c3c([nH]c2c1)[C@@H]1Oc2c(O)ccc4c2[C@@]12CCN(CC1CC1)[C@H](C4)[C@]2(O)C3` [Compound I-2], in assay [2], the Ki was determined as 1.7 nM.
Same read-out and setting: then `Cc1oc(=O)oc1COC(=O)c1ccc2c3c([nH]c2c1)[C@@H]1Oc2c(O)ccc4c2[C@@]12CCN(CC1CC1)[C@H](C4)[C@]2(O)C3` [Compound I-3], with 1.06 nM; and `CCCC(=O)OCOC(=O)c1ccc2c3c([nH]c2c1)[C@@H]1Oc2c(O)ccc4c2[C@@]12CCN(CC1CC1)[C@H](C4)[C@]2(O)C3` [Compound I-4], with 1.14 nM; and `CC(=O)OC(C)OC(=O)c1ccc2c3c([nH]c2c1)[C@@H]1Oc2c(O)ccc4c2[C@@]12CCN(CC1CC1)[C@H](C4)[C@]2(O)C3` (stereo partly drawn) [Compound I-8], with 1.38 nM.
`CC(OC(=O)c1ccc2c3c([nH]c2c1)[C@@H]1Oc2c(O)ccc4c2[C@@]12CCN(CC1CC1)[C@H](C4)[C@]2(O)C3)OC(=O)C(C)C` (stereo partly drawn) [Compound I-9]: affinity in assay [2] was put at a Ki of 1.25 nM.
